Experimental data as given in patent US20230057984A1, “NORMALIZATION OF CULTURE OF CORNEAL ENDOTHELIAL CELLS” (KYOTO PREFECTURAL PUBLIC UNIVERSITY CORPORATION, priority 2011, published 2023).

Tested on: Cynomolgus monkey corneal endothelial cells
Test: Immunostaining of Na+/K+-ATPase and ZO-1 in monkey corneal endothelial cells (Example 3)
Type: cell-based
Settings: monkey CEC treated with SB431542; control lost its staining
Experimental: Phosphatase inhibitor cocktail 2 (Sigma-Aldrich) and protease inhibitor cocktail (Nacalai Tesque, Inc., Kyoto city) were added to the aforementioned RIPA buffer. The obtained cell lysate was centrifuged (15,000 rpm, 10 minutes) where the supernatant thereof was collected, and the protein was quantitated using a BCA PROTEIN ASSAY KIT (PIERCE (catalog number: 23227)). Dissolution was performed using 100 μl dissolution buffer (Laemmli sample buffer) including 5 mM 2-mercaptoethanol (Nacalai Tesque (catalog number: 21418-42)). • Immunostaining: after washing cells which had reached confluency with PBS (Nissui, catalog number: 5913), the cells were fixed for 10 minutes with iced ethanol (Nacalai Tesque, catalog number: 14713-95) and acetic acid (WAKO catalog number:017-00256) (95:5).
Blocking was performed via incubation for 1 hour with 0.1% (vol/vol) polyethylene sorbitan monolaurate (Nacalai Tesque, catalog number: 28353-85) (TBS-T) and Tris buffered saline (10 mM Tris-HCl, pH7.4; 100 mM NaCl) with 10% fetal bovine serum. […]
Next, reaction was allowed for 1 hour at a room temperature with ALEXA FLUOR 488 (INVITROGEN (catalog number: A21206)) and ALEXA FLUOR 594 (INVITROGEN (catalog number: A21203)), diluted with TBS-T by 1,000 fold. […] After washing, bands were detected using an ECL-ADVAVCE Western Blotting Detection Kit (GE healthcare Japan (catalog number: RPN2135V)). […]

NC(=O)c1ccc(-c2nc(-c3ccc4c(c3)OCO4)c(-c3ccccn3)[nH]2)cc1 [SB431542]
plasma membrane staining of Na+/K+-ATPase and ZO-1 (immunostaining): characteristic plasma membrane staining of Na^+/K^+-ATPase and ZO-1
